Measured values taken from patent publication US20240158446A1, “CYCLIC COMPOUND HAVING SELECTIVE INHIBITORY ACTION ON KRAS OVER HRAS AND NRAS” (CHUGAI SEIYAKU KABUSHIKI KAISHA, priority 2021, published 2024).
Where a SMILES comes first, the peptide text is derived from it. Bridges are numbered along the chain shown (N, C = ends). [ ]: non-standard residue; d: D form. The star is where a group is joined. hPhe(3-Cl-4-CF3) = N[C@@H](CCc1ccc(C(F)(F)F)c(Cl)c1)C(=O)O; NPrPhe(4-CF3) = CCCN[C@@H](Cc1ccc(C(F)(F)F)cc1)C(=O)O; NMeGly(cPent) = CN[C@H](C(=O)O)C1CCCC1; Ac4c(3,3-Me2) = CC1(C)CC(N)(C(=O)O)C1; NMeD = CN[C@@H](CC(=O)O)C(=O)O; NMeL = CN[C@@H](CC(C)C)C(=O)O; Morpholide = C1CN(*)CCO1; Sar = CNCC(=O)O

Columns and labels:
[1] = system: human lung cancer strain NCI-H441; assay: cells; settings: NCI-H441, 96 h, read-out: NCI-H441 IC50 (nM), NCI-H441 cell proliferation, 4 days, CellTiter-Glo;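 also: cell proliferation inhibition after four days measured by CellTiter-Glo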
[2] = target: GDP-bound KRAS wild-type protein (Homo sapiens, UniProt P01116); assay: Binding to KRAS by surface plasmon resonance (SPR), Single Cycle Kinetics; settings: SPR, Single Cycle Kinetics, GDP-bound KRAS wild-type protein; read-out: KRAS KD
[3] = target: GDP-bound NRAS wild-type protein (Homo sapiens, UniProt P01111); assay: Binding to NRAS by surface plasmon resonance (SPR), Single Cycle Kinetics; settings: ratio of KD for GDP-bound NRAS wild-type protein to KD for KRAS, SPR
[4] = target: GDP-bound HRAS wild-type protein (Homo sapiens, UniProt P01112); assay: Binding to HRAS by surface plasmon resonance (SPR), Single Cycle Kinetics; settings: ratio of KD for GDP-bound HRAS wild-type protein to KD for KRAS, SPR
Chain of GDP-bound HRAS wild-type protein (P01112 whole entry): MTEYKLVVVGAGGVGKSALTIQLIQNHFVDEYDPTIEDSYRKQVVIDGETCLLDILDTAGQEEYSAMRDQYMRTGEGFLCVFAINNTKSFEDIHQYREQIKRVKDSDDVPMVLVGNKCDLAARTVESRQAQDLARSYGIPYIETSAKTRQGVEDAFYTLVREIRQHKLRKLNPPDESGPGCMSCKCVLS

Chain of GDP-bound KRAS wild-type protein (P01116 whole entry): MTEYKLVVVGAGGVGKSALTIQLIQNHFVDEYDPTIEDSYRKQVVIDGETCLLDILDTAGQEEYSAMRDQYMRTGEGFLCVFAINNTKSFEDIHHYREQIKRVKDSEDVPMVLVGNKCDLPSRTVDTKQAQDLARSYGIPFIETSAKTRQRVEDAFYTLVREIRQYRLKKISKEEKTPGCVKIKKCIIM
Chain of GDP-bound NRAS wild-type protein (P01111 whole entry): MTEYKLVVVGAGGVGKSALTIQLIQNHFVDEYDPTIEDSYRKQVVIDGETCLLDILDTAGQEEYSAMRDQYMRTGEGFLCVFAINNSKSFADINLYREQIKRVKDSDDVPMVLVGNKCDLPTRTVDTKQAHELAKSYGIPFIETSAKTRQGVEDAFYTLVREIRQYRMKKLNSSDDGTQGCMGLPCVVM

SMILES: CCCN1C(=O)CN(C)C(=O)CN(C)C(=O)[C@H]([C@@H](C)OCC)NC(=O)[C@H](CC(C)C)N(C)C(=O)C[C@@H](C(=O)N2CCOCC2)N(C)C(=O)[C@H](C2CCCC2)N(C)C(=O)C2(CC(C)(C)C2)NC(=O)[C@@H]2CCCN2C(=O)[C@H](CCc2ccc(C(F)(F)F)c(Cl)c2)NC(=O)CN(C)C(=O)[C@@H]1Cc1ccc(C(F)(F)F)cc1 [PP1964] ([NMeL]T(Et)[Sar][Sar][NPrPhe(4-CF3)][Sar][hPhe(3-Cl-4-CF3)]P[Ac4c(3,3-Me2)][NMeGly(cPent)][NMeD]-Morpholide; lactam N-11)
- IC50 [1]: 10.3 nM
- Kd [2]: 0.19 nM
- NRAS/KRAS (KD ratio) [3]: B (a compound having 3 or more and less than 10 is denoted as B)
- HRAS/KRAS (KD ratio) [4]: B (a compound having 3 or more and less than 10 is denoted as B)

SMILES: CCCC[C@H]1C(=O)N[C@@H]([C@@H](C)CC)C(=O)N(C)CC(=O)N(C)[C@H]2C/C=C\CCN(C2=O)[C@@H](Cc2ccc(C(F)(F)F)cc2)C(=O)N(C)CC(=O)N[C@@H](CCc2cc(F)c(C(F)(F)F)c(F)c2)C(=O)N2C[C@H](OCC)C[C@H]2C(=O)NC2(CC(C)(C)C2)C(=O)N(C)[C@@H](C2CCCC2)C(=O)N(C)[C@H](C(=O)N(C)C)CC(=O)N1C [PP1649]
- IC50 [1]: 2.2 nM
- Kd [2]: 0.064 nM
- NRAS/KRAS (KD ratio) [3]: A (a compound having 10 or more and less than 20 is denoted as A)
- HRAS/KRAS (KD ratio) [4]: B (a compound having 3 or more and less than 10 is denoted as B)

SMILES: CC[C@H](C)[C@@H]1NC(=O)[C@H](CC)N(C)C(=O)C[C@@H](C(=O)N(C)C)N(C)C(=O)[C@H](C2CCCC2)N(C)C(=O)C2(CCC2)N(C)C(=O)[C@@H]2CCCN2C(=O)[C@H](CCc2cc(F)c(C(F)(F)F)c(F)c2)NC(=O)CN(C)C(=O)[C@H](Cc2ccc(C)cc2)N2CC/C=C\C[C@@H](C2=O)N(C)C(=O)[C@@H]2CCCN2C1=O [PP1786]
- IC50 [1]: 11.4 nM
- Kd [2]: 0.14 nM
- NRAS/KRAS (KD ratio) [3]: A (a compound having 10 or more and less than 20 is denoted as A)
- HRAS/KRAS (KD ratio) [4]: B (a compound having 3 or more and less than 10 is denoted as B)

SMILES: CCCOC[C@H]1C(=O)N[C@@H]([C@@H](C)CC)C(=O)N(C)CC(=O)N(C)[C@H]2C/C=C\CCN(C2=O)[C@@H](Cc2ccc(C(F)(F)F)cc2)C(=O)N(C)CC(=O)N[C@@H](CCc2ccc(C(F)(F)F)c(OC)c2)C(=O)N2C[C@H](OCC)C[C@H]2C(=O)NC2(CC(C)(C)C2)C(=O)N(C)[C@@H](C2CCCC2)C(=O)N(C)[C@H](C(=O)N(C)CC)CC(=O)N1C [PP1973]
- IC50 [1]: 8.7 nM
- Kd [2]: 0.099 nM
- NRAS/KRAS (KD ratio) [3]: A (a compound having 10 or more and less than 20 is denoted as A)
- HRAS/KRAS (KD ratio) [4]: B (a compound having 3 or more and less than 10 is denoted as B)

SMILES: CCO[C@@H]1C[C@H]2C(=O)NC3(CC(C)(C)C3)C(=O)N(C)[C@@H](C3CCCC3)C(=O)N(C)[C@H](C(=O)N(C)C)CC(=O)N(C)[C@@H](CC(C)C)C(=O)N[C@@H]([C@@H](C)CC)C(=O)N(C)CC(=O)N(C)[C@H]3C/C=C\CCN(C3=O)[C@@H](Cc3ccc(C(F)(F)F)cc3)C(=O)N(C)CC(=O)N[C@@H](CCc3ccc(C(F)(F)F)c(F)c3)C(=O)N2C1 [PP1931]
- IC50 [1]: 9.5 nM
- Kd [2]: 0.12 nM
- NRAS/KRAS (KD ratio) [3]: A (a compound having 10 or more and less than 20 is denoted as A)
- HRAS/KRAS (KD ratio) [4]: B (a compound having 3 or more and less than 10 is denoted as B)

SMILES: CC[C@H](C)[C@@H]1NC(=O)[C@H](CC)N(C)C(=O)C[C@@H](C(=O)N(C)C)N(C)C(=O)[C@H](C2CCCC2)N(C)C(=O)C2(CCCC2)N(C)C(=O)[C@@H]2C[C@@H](C)CN2C(=O)[C@H](CCc2cc(F)c(C(F)(F)F)c(F)c2)NC(=O)CN(C)C(=O)[C@H](Cc2ccc(C)cc2)N2CC/C=C\C[C@@H](C2=O)N(C)C(=O)CN(C)C1=O [PP1812]
- IC50 [1]: 7.8 nM
- Kd [2]: 0.059 nM
- NRAS/KRAS (KD ratio) [3]: A (a compound having 10 or more and less than 20 is denoted as A)
- HRAS/KRAS (KD ratio) [4]: A (a compound having 10 or more and less than 20 is denoted as A)

SMILES: CCO[C@@H]1C[C@H]2C(=O)NC3(CCC3)C(=O)N(C)[C@@H](C(CC)CC)C(=O)N3CCC[C@@H]3CC(=O)N(C)[C@@H](CC3CC3)C(=O)N[C@@H]([C@@H](C)CC)C(=O)N(C)CC(=O)N(C)[C@H]3C/C=C\CCN(C3=O)[C@@H](Cc3ccc(C(F)(F)F)cc3)C(=O)N(C)CC(=O)N[C@@H](CCc3cc(F)c(C(F)(F)F)c(F)c3)C(=O)N2C1 [PP1612]
- IC50 [1]: 61.9 nM
- Kd [2]: 1.2 nM
- NRAS/KRAS (KD ratio) [3]: B (a compound having 3 or more and less than 10 is denoted as B)
- HRAS/KRAS (KD ratio) [4]: B (a compound having 3 or more and less than 10 is denoted as B)

SMILES: CCO[C@@H]1C[C@H]2C(=O)NC3(CC(C)(C)C3)C(=O)N(C)[C@@H](C3CCCC3)C(=O)N(C)[C@H](C3CCC3)CC(=O)N(C)[C@@H](CC3CC3)C(=O)N[C@@H]([C@@H](C)CC)C(=O)N(C)CC(=O)N(C)[C@H]3C/C=C\CCN(C3=O)[C@@H](Cc3ccc(C(F)(F)F)cc3)C(=O)N(C)CC(=O)N[C@@H](CCc3cc(F)c(C(F)(F)F)c(F)c3)C(=O)N2C1 [PP1635]
- IC50 [1]: 36.3 nM
- Kd [2]: 0.64 nM
- NRAS/KRAS (KD ratio) [3]: B (a compound having 3 or more and less than 10 is denoted as B)
- HRAS/KRAS (KD ratio) [4]: A (a compound having 10 or more and less than 20 is denoted as A)

SMILES: CCO[C@@H]1C[C@H]2C(=O)NC3(CC(C)(C)C3)C(=O)N(C)[C@@H](C3CCCC3)C(=O)N(C)[C@H](C(=O)N(C)C)CC(=O)N(C)[C@@H](C)C(=O)N[C@@H]([C@@H](C)CC)C(=O)N(C)CC(=O)N(C)[C@H]3C/C=C\CCN(C3=O)[C@@H](Cc3ccc(C(F)(F)F)cc3)C(=O)N(C)CC(=O)N[C@@H](CCc3cc(F)c(C(F)(F)F)c(F)c3)C(=O)N2C1 [PP1641]
- IC50 [1]: 4.6 nM
- Kd [2]: 0.098 nM
- NRAS/KRAS (KD ratio) [3]: A (a compound having 10 or more and less than 20 is denoted as A)
- HRAS/KRAS (KD ratio) [4]: A (a compound having 10 or more and less than 20 is denoted as A)

SMILES: CCCN(C)C(=O)[C@@H]1CC(=O)N(C)[C@@H](CC(F)F)C(=O)N[C@@H]([C@@H](C)CC)C(=O)N(C)CC(=O)N(C)[C@H]2C/C=C\CCN(C2=O)[C@@H](Cc2ccc(C(F)(F)F)cc2)C(=O)N(C)CC(=O)N[C@@H](CCc2ccc(C(F)(F)F)c(OC)c2)C(=O)N2C[C@@H](C)C[C@H]2C(=O)NC2(CC(C)(C)C2)C(=O)N(C)[C@@H](C2CCCC2)C(=O)N1C [PP1989]
- IC50 [1]: 11.1 nM
- Kd [2]: 0.19 nM
- NRAS/KRAS (KD ratio) [3]: A (a compound having 10 or more and less than 20 is denoted as A)
- HRAS/KRAS (KD ratio) [4]: A (a compound having 10 or more and less than 20 is denoted as A)

SMILES: CCCN(C)C(=O)[C@@H]1CC(=O)N(C)[C@@H](CC(C)C)C(=O)N[C@@H](C2CCOCC2)C(=O)N(C)CC(=O)N(C)[C@H]2C/C=C\CCN(C2=O)[C@@H](Cc2ccc(C(F)(F)F)cc2)C(=O)N(C)CC(=O)N[C@@H](CCc2cc(F)c(C(F)(F)F)c(F)c2)C(=O)N2C[C@H](OCC)C[C@H]2C(=O)NC2(CC(C)(C)C2)C(=O)N(C)[C@@H](C2CCCC2)C(=O)N1C [PP1923]
- IC50 [1]: 68 nM
- Kd [2]: 3.4 nM
- NRAS/KRAS (KD ratio) [3]: A (a compound having 10 or more and less than 20 is denoted as A)
- HRAS/KRAS (KD ratio) [4]: A (a compound having 10 or more and less than 20 is denoted as A)

SMILES: CCCN(C)C(=O)[C@@H]1CC(=O)N(C)[C@@H](CC)C(=O)N[C@@H]([C@@H](C)CC)C(=O)N(C)CC(=O)N(C)[C@H]2C/C=C\CCN(C2=O)[C@@H](Cc2ccc(C(F)(F)F)cc2)C(=O)N(C)CC(=O)N[C@@H](CCc2cc(F)c(C(F)(F)F)c(F)c2)C(=O)N2C[C@H](OCC)C[C@H]2C(=O)NC2(CC(F)(F)C2)C(=O)N(C)[C@@H](C2CCCC2)C(=O)N1C [PP1732]
- IC50 [1]: 6.4 nM
- Kd [2]: 0.099 nM
- NRAS/KRAS (KD ratio) [3]: AA (a compound having 20 or more is denoted as AA)
- HRAS/KRAS (KD ratio) [4]: A (a compound having 10 or more and less than 20 is denoted as A)

SMILES: CCO[C@@H]1C[C@H]2C(=O)NC3(CC(F)(F)C3)C(=O)N(C)[C@@H](C(CC)CC)C(=O)N(C)[C@H](CC)CC(=O)N(C)[C@@H](CC3CC3)C(=O)N[C@@H]([C@@H](C)CC)C(=O)N(C)CC(=O)N(C)[C@H]3C/C=C\CCN(C3=O)[C@@H](Cc3ccc(C(F)(F)F)cc3)C(=O)N(C)CC(=O)N[C@@H](CCc3cc(F)c(C(F)(F)F)c(F)c3)C(=O)N2C1 [PP1632]
- IC50 [1]: 116 nM
- Kd [2]: 3.7 nM
- NRAS/KRAS (KD ratio) [3]: A (a compound having 10 or more and less than 20 is denoted as A)
- HRAS/KRAS (KD ratio) [4]: A (a compound having 10 or more and less than 20 is denoted as A)

SMILES: CCC[C@H]1C(=O)N[C@@H]([C@@H](C)CC)C(=O)N(C)CC(=O)N(C)[C@H]2C/C=C\CCN(C2=O)[C@@H](Cc2ccc(C(F)(F)F)cc2)C(=O)N(C)CC(=O)N[C@@H](CCc2cc(F)c(Cl)c(F)c2)C(=O)N2C[C@H](OCC)C[C@H]2C(=O)NC2(CC(C)(C)C2)C(=O)N(C)[C@@H](C2CCCC2)C(=O)N(C)[C@H](C(=O)N(C)C)CC(=O)N1C [PP1758]
- IC50 [1]: 6 nM
- Kd [2]: 0.19 nM
- NRAS/KRAS (KD ratio) [3]: AA (a compound having 20 or more is denoted as AA)
- HRAS/KRAS (KD ratio) [4]: A (a compound having 10 or more and less than 20 is denoted as A)
